Results taken from US20260191766A1, “USE OF CONDITIONED MEDIUM DERIVED FROM CULTIVATION OF MESENCHYMAL STEM CELLS OF THE UMBILICAL CORD FOR INDUCING, STIMULATING AND PROMOTING HAIR GROWTH AND REGENERATION” (CELLRESEARCH CORPORATION PTE. LTD., priority 2022, published 2026).

B1: TGF-β2: transforming growth factor, literature data (protein, UniProt P61812 303-414, looked up)
Transforming growth factor …: ALDAAYCFRNVQDNCCLRPLYIDFKRDLGWKWIHEPKGYNANFCAGACPYLWSSDTQHSRVLSLYNTINPEASASPCCVSQDLEPLTILYYIGKTPKIEQLSNMIVKSCKCS

Tests used:
elastin mRNA in HDFs = settings: 24 hours, 1 ng/ml; cited from earlier work
[1] = system: COVID-19-induced scalp alopecia (telogen effluvium); experiment: Example 8: case study, COVID-19-induced telogen effluvium; type: in vivo, human; settings: same patient; minoxidil and LED light treatment (Hairmax)
Protocol: COVID-19-induced scalp Alopecia can induce telogen effluvium (TE) which refers to diffuse scalp alopecia. A patient with severe chronic TE with no spontaneous recovery after 6 months of hair loss and no response to conventional treatment of minoxidil and LED light treatment (Hairmax) was treated with a composition comprising conditioned medium derived from cultivation of mesenchymal stem cells of the umbilical cord (CALECIM® Advanced Hair System).
The scalp of the patient was progressively treated with rubbing with an alcohol swab, then 1 ml of a composition comprising conditioned medium derived from cultivation of mesenchymal stem cells of the umbilical cord was applied and massaged in till dry. The patient was advised to wait until evening to wash their hair. Five treatments of conditioned medium derived from cultivation of mesenchymal stem cells of the umbilical cord spaced a month apart were administered.

[2] = system: human follicle dermal papilla cells (HFDPC); experiment: growth promotion on cultured human follicle dermal papilla cells (WST-8); type: cell-based
Source text: Hair growth is controlled by a unique repetitive cycle comprised of anagen, catagen and telogen phases. Dermal papilla cells (DPCs), a group of specialized fibroblasts within the hair follicle bulb, have an essential function in the control of hair growth not only in the normal hair cycle but also in the pathogenesis of certain conditions, for example in androgenetic alopecia. Therefore, factors affecting the functions of DPCs in hair loss are of great importance from the therapeutic viewpoint. […] HFDPCs are either treated with different concentrations of Minodixil (0.0125-200 μg/mL; see Table 3, left column, serving as the reference) or conditioned medium of the invention at different dilutions (PC, dilution range from 10-1280 times; see third column of Table 3). The negative control (NC) refers to HFDPCs incubated with basal medium only. All data are shown as the mean±standard deviation (SD). For comparison of different treatments between 2 groups, the Student's t test was used. p<0.05 was considered significant, p<0.01 would normally be considered highly significant, and p<0.001 extremely significant. After calculation, p is 0.03.

Row | Molecule | maximum increase of elastin mRNA steady-state levels (elastin mRNA in HDFs) [fold] | response to conventional treatment before the study treatment [1] | cell count of HFDPC (% of control) ([2]; Minoxidil 0.0125 ug/mL) | cell count of HFDPC (% of control) ([2]; Minoxidil 0.025 ug/mL) | cell count of HFDPC (% of control) ([2]; Minoxidil 0.05 ug/mL) | cell count of HFDPC (% of control) ([2]; Minoxidil 0.1 ug/mL) | cell count of HFDPC (% of control) ([2]; Minoxidil 0.2 ug/mL) | cell count of HFDPC (% of control) ([2]; Minoxidil 2 ug/mL) | cell count of HFDPC (% of control) ([2]; Minoxidil 20 ug/mL) | cell count of HFDPC (% of control) ([2]; Minoxidil 200 ug/mL) | more cells compared to negative control ([2]; diluted 320 times)
1 | TGF-β1: transforming growth factor, literature data | 30 |  |  |  |  |  |  |  |  |  | 
2 | Nc1cc(N2CCCCC2)nc(N)[n+]1[O-] [Minoxidil] |  | no response | 94 ± 0.6 % of control | 92.2 ± 1.4 % of control | 120.8 ± 4.8 % of control | 120.8 ± 8.8 % of control | 123.2 ± 8.4 % of control | 124.5 ± 10.2 % of control | 98.5 ± 7.7 % of control | 43 ± 2.6 % of control | around 20%
3 | B1 | 30 |  |  |  |  |  |  |  |  |  | 
